Experimental data as given in patent publication US20220213060A1, “Crystal Form of Quinazolinone Compound and Preparation Method Therefor” (Luoxin Healthcare Science and Technology Development …, priority 2019, published 2022).

How the values were obtained:
[1] = test system: MCF7 cell line; assay: In vitro cell activity test: ELISA of Akt phosphorylation in MCF7 cells; type: cell-based; conditions: Homo sapiens; inhibition of Akt phosphorylation, insulin-stimulated MCF7 cells
Text: ELISA method was used to measure the inhibition level of the compounds to be tested on the phosphorylation of Akt, which is the downstream protein of PI3K in signal pathway in MCF7 cell line to reflect the cell activity of the compounds.
Cell culture medium: complete cell culture medium (RPMI 1640+10% serum+1% L-glutamine+1% double antibody)
Serum-free medium (without serum, RPMI 1640+1% L-glutamine+1% double antibody)
Specific operation steps were as follows:
(1) MCF7 cells (ATCC® HTB-22™) were inoculated into a 96-well plate with 100 μL (2.5 10^4 cells per well) of complete cell culture medium, and incubated at 37° C. and 5% CO2 for 24 hours.
(2) The complete cell culture medium was replaced with 100 μL serum-free medium, and incubated overnight in starvation
(3) The compound (the initial concentration of the compound was 1 mM, which was subjected to a three-fold dilution in 10 concentrations. Then, each concentration of the compound was diluted 100-fold with serum-free medium), and 25 μL of the diluted compound was added to the well plate containing cells.
(4) The cells were incubated at 37° C. and 5% CO2 for 2 h
(5) 10 μg/mL insulin (Sigma #I9278-5 mL) was used to stimulate the cells in the well plate, incubated for 30 min, and then centrifuged at 1000 rpm for 5 min at room temperature.
(6) 250 μL 1× balanced salt solution (Invitrogen, #14065-056, 4° C., containing 1 mM/L Na3VO4) was added to each well to wash the cells once
(7) 100 μL of lysis buffer (tris(hydroxymethyl)aminomethane hydrochloride, Invitrogen, #15567-1000 ml) was added to each well and shaken at 4° C. for 60 min, and then centrifuged at 4000 rpm for 10 min at 4° C.
(8) The subsequent steps were performed according to the ELISA kit (TGR BioSciences #EKT002) instructions.

[2] = Beagle dog absorption test (pharmacokinetics); type: in vivo, Beagle dogs; conditions: male and female Beagle dogs, oral, 0.3 mg/kg, single
Protocol: Beagle dogs were given the crystal form A of the compound represented by formula (I) by single or multiple oral administration and single intravenous injection respectively, with 6 dogs in each group, half male and half female. The single oral doses were 0.3, land 3 mg/kg respectively; the multiple doses were 1 mg/kg, once a day for 7 consecutive days; the single intravenous dose was 0.3 mg/kg. According to the drug plasma concentration-time curve, the pharmacokinetic parameters were calculated, the results are shown in Table 15. The vehicle for drug preparation in group 1 was 5% HP-beta-CD, 5% solutol, pH=8 aqueous solution, the vehicles for groups 2, 3, 4 were 0.5% MC, 0.2% Tween80 aqueous solution.

[3] = Hygroscopicity by dynamic vapor sorption (DVS); type: physicochemical; conditions: 25° C. and 80% RH
Protocol: 1.4 Dynamic Vapor Sorption (DVS) Method of the Present Disclosure
Instrument model: SMS DVS Advantage dynamic vapor sorption instrument
Detection conditions: 10-20 mg of sample was placed in a DVS sample tray for testing.
Detailed DVS parameters were as follows:
Equilibrium: dm/dt=0.01%/min: (shortest: 10 min, longest: 180 min)
Drying: drying at 0% RH for 120 min
RH (%) test gradient: 10%
RH (%) test gradient range: 0%-90%-0%
Hygroscopicity evaluation is classified as follows:
20 mg of the crystal form A of the compound represented by formula (I) was placed in the DVS sample tray for testing.

[4] = biological target: T1, PI3Kγ (Homo sapiens, UniProt P48736); assay: In vitro enzymatic activity test (ADP-Glo lipid kinase), PI3Kγ; type: biochemical; conditions: Table 17, in vitro screening
T1 construct: purchased Millipore 14-558-K
Protocol: (§1) The lipid kinase reaction was carried out in a suitable substrate and under ATP conditions, then the activity of the kinase was detected by ADP-Glo™ kit in two steps. Step 1: the kinase reaction was terminated, in which the residual ATP was completely removed and only ADP was retained; step 2: kinase detection reagent was added to convert ADP to ATP, accompanied by fluorescein/luciferase reaction. Finally, the fluorescence value output was converted into kinase activity.
(§2) Experimental Materials and Equipment:
(§3) 2) Kit: ADP-Glo™ lipid kinase and PIP2:3PS kit (Promega #V1792)
(§4) The reagent kit contains: 1 mM PIP2:3PS, 10× lipid dilution buffer, 1 M magnesium chloride, 10 mM ATP, 10 mM ADP, ADP-Glo reagent, detection buffer and detection substrate.
(§5) 3) Reaction plate: OptiPlate-384, white and transparent (PerkinElmer #6007299)
(§6) 1) 10× reaction buffer: 500 mM HEPES, pH 7.5, 500 mM NaCl, […]; BSA: 10% stock solution, self-made
(§7) 2) Final test system conditions: 1× reaction system: 50 mM of HEPES, 50 mM of NaCl, 3 mM of MgCl2, 0.01% BSA (freshly prepared on the day of experiment), 1% DMSO (v/v)+/−compound
(§8) 3) Reaction system: 3 μL of mixture of enzyme and substrate (1:1)+2 μL of ATP/MgCl2 mixture+5 μL of ADP-Glo reagent+10 μL of detection reagent.
(§9) The specific experimental operations were as follows: […]
(§10) (16) Fluorescence values were measured on the Envision instrument.

[5] = biological target: T2, PI3Kα (Homo sapiens, UniProt P42336); assay: In vitro enzymatic activity test (ADP-Glo lipid kinase), PI3Kα wild type; type: biochemical; conditions: Table 17, in vitro screening; read-out: PI3Kα IC50
T2 construct: purchased Millipore 14-602-K
Protocol: as §1, §2, §3, §4, §5, §6, §7, §8, §9, §10

[6] = biological target: T3, PI3Kδ (Homo sapiens, UniProt O00329); assay: In vitro enzymatic activity test (ADP-Glo lipid kinase), PI3Kδ; type: biochemical; conditions: Table 17, in vitro screening
T3 construct: purchased Millipore 14-604-K
Protocol: as §1, §2, §3, §4, §5, §6, §7, §8, §9, §10

[7] = biological target: T4, PI3Kβ (Homo sapiens, UniProt P42338); assay: In vitro enzymatic activity test (ADP-Glo lipid kinase), PI3Kβ; type: biochemical; conditions: Table 17, in vitro screening
T4 construct: purchased Promega V1751
Protocol: as §1, §2, §3, §4, §5, §6, §7, §8, §9, §10

[8] = test system: HR+/HER2+ human breast cancer BT-474 (PIK3CA amplified); assay: In vivo pharmacodynamic study, BT-474 nude mouse subcutaneous xenograft tumor model; design: species or system BALB/c nude mice
Protocol: The phenotype of human BT-474 breast cancer cells is HR+/HER2+, and it has PIK3CA amplification. This experiment evaluated the efficacy of the crystal form A of the compound represented by formula (I) in a human breast cancer xenograft tumor model, using BYL-719 as a reference.
Cell culture: Human breast cancer BT474 cells were cultured in vitro in a single layer, the culture condition was Hybri-Care medium with 10% fetal bovine serum and the cells were incubated in 5% CO2 at 37° C. Digestion and passage treatment with trypsin-EDTA was carried out twice a week. When the cell saturation was 80%-90% and the number reached the requirement, the cells were collected, counted and inoculated.
Animals: BALB/c nude mice, female, 6-8 weeks old, weighing 18-20 g. A total of 85 animals were required, and provided by Shanghai Bikai experimental animal Co., Ltd.
Tumor inoculation: Estrogen tablets (0.36 mg/tablet) were subcutaneously inoculated on the left back of each mouse, three days later, 0.2 mL (10×10^6 cells) of BT474 cells (with matrigel in a volume ratio of 1:1) were subcutaneously inoculated on the right back of each mouse, group administration was started when the average tumor volume reached 150 mm^3−200 mm^3.
Tumor-bearing mice in each administration group had good tolerance to the tested compounds.

[9] = 40 mg/kg, oral once a day for 20 days

T3 sequence (O00329 whole entry): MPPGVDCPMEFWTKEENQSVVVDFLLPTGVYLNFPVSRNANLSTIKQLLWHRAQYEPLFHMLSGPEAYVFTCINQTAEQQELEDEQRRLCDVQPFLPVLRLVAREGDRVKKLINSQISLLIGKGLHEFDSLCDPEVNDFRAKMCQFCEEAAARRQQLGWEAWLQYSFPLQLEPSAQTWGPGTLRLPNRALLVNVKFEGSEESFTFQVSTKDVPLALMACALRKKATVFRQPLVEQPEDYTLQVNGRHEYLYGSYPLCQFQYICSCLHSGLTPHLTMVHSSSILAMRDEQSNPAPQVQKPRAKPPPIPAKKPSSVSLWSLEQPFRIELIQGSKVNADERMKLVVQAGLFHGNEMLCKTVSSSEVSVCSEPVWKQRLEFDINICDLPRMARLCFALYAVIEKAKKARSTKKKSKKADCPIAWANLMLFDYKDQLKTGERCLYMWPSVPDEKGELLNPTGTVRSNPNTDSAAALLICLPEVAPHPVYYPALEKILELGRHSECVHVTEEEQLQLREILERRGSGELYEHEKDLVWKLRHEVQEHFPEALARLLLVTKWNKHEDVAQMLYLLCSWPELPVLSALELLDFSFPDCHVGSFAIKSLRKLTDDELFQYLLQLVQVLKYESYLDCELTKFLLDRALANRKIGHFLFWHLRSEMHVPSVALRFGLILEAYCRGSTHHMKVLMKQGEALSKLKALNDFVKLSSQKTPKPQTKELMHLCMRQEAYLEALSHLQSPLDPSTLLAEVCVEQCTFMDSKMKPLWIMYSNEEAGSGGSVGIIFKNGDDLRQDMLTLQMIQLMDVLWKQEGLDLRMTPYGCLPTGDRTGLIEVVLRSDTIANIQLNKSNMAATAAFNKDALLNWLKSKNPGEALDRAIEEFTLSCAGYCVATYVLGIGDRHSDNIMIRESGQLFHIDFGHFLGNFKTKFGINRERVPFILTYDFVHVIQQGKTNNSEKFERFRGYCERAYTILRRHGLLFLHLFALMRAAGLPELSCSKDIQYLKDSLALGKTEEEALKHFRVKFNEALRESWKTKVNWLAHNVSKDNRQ
T3 sequence (P27986 whole entry partner): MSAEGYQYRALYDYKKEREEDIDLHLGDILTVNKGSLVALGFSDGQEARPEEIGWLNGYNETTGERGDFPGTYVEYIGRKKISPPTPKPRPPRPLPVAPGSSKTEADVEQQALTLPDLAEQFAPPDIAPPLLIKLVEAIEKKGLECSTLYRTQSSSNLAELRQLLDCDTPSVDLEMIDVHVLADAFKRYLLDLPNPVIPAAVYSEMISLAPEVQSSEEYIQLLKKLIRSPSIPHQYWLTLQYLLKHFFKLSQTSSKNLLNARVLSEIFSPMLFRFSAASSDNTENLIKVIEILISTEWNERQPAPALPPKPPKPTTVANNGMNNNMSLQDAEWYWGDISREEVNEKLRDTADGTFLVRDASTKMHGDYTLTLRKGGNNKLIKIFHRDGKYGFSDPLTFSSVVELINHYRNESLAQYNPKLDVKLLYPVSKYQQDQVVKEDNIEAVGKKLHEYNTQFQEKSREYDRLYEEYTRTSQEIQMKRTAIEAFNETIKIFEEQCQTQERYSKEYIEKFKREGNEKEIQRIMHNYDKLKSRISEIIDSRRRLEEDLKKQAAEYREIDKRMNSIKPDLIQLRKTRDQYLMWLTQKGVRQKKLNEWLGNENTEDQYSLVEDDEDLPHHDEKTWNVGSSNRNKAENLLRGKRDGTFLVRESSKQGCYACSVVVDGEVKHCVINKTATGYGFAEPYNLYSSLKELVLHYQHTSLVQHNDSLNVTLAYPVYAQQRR
T2 sequence (P42336 whole entry): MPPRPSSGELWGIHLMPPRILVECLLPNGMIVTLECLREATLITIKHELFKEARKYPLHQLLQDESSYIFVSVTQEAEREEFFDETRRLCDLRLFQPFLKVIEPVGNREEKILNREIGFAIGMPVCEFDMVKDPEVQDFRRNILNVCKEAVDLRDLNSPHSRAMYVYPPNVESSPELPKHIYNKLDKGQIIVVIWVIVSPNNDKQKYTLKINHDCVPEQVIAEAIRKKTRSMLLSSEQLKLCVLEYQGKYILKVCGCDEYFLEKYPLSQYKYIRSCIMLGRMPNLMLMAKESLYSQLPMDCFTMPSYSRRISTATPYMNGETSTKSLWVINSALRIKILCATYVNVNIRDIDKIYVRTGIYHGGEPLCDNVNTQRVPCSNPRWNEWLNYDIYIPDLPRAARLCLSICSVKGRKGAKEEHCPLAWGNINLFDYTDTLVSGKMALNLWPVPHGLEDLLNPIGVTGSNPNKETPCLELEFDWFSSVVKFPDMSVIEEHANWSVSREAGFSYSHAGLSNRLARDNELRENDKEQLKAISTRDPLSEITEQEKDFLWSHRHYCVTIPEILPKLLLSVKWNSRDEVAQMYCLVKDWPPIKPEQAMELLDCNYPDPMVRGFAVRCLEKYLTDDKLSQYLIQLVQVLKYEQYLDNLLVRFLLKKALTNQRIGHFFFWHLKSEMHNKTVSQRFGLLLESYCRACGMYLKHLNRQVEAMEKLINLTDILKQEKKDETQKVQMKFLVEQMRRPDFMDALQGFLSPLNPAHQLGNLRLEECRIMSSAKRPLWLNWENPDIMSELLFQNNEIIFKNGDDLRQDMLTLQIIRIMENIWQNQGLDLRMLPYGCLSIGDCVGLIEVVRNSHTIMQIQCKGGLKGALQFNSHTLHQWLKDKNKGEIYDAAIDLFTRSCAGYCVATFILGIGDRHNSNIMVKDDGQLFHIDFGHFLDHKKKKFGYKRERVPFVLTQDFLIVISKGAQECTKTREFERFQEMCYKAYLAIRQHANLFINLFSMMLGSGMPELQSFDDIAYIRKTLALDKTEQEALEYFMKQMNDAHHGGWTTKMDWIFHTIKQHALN
T2 sequence (P27986 whole entry partner): as the sequence (P27986 whole entry partner) above
T4 sequence (P42338 whole entry): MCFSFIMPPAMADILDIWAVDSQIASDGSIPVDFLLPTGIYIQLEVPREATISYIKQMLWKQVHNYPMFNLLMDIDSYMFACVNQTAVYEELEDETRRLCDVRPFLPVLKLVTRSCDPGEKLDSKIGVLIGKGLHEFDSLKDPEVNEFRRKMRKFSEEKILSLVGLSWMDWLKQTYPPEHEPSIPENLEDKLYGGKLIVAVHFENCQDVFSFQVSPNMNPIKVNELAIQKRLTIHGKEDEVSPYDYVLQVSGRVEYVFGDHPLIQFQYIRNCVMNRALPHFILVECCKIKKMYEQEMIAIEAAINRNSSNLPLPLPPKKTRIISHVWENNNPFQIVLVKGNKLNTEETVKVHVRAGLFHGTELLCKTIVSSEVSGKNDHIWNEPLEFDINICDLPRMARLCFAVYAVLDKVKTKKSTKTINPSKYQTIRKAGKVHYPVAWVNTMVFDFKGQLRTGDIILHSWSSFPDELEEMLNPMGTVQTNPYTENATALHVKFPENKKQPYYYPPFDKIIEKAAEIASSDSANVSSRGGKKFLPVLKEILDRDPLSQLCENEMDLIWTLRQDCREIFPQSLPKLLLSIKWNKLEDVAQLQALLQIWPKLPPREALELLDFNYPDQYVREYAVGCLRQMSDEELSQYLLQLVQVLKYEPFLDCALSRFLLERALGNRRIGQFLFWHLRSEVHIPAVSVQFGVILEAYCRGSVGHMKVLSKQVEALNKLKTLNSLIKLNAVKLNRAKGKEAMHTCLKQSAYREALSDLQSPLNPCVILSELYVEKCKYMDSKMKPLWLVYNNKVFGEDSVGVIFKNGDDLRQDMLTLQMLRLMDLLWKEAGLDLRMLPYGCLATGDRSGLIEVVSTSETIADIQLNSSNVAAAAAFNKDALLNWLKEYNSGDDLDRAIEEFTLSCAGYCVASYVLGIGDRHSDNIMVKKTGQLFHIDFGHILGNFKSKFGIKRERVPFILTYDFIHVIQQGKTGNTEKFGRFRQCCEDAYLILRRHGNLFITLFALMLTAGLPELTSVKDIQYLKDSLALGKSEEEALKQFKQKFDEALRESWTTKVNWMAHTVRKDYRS
T4 sequence (P27986 whole entry partner): as the sequence (P27986 whole entry partner) above
T1 sequence (P48736 whole entry): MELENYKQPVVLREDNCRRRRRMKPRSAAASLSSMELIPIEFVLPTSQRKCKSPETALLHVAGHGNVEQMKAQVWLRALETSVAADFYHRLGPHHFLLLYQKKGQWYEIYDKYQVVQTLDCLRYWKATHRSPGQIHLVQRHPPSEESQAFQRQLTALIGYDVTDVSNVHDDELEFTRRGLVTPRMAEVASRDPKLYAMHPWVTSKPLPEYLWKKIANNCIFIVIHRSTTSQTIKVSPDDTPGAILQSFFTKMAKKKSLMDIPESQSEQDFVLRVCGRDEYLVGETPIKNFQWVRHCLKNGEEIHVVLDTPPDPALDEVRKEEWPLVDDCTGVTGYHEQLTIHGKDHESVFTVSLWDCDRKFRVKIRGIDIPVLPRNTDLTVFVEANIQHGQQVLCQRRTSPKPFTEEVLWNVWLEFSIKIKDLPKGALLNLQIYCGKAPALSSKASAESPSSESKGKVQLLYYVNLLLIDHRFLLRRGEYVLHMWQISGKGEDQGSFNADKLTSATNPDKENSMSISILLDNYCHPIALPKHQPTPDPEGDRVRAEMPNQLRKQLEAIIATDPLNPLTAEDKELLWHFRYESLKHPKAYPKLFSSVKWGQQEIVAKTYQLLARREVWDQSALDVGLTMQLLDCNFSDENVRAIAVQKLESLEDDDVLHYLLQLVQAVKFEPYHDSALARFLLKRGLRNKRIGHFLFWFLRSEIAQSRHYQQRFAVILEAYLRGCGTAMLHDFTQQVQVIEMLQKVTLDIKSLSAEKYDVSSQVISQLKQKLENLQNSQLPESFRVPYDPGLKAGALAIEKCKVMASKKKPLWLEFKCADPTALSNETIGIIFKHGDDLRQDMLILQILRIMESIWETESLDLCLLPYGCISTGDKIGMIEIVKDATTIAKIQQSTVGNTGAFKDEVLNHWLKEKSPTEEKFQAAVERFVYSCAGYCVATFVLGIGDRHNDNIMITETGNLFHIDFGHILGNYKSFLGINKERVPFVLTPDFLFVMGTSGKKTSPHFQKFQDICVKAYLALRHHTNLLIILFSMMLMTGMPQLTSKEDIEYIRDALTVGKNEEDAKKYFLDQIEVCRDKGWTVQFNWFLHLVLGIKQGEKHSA

COc1ncc(-c2ccc3ncn(CCN(C)C)c(=O)c3c2)cc1NS(=O)(=O)c1ccc(F)cc1 [R011 (A2)]
IC50 [1]: 230 nM

CNC(=O)[C@H](C)Cn1cnc2ccc(-c3cnc(OC)c(NS(=O)(=O)c4ccc(F)cc4F)c3)cc2c1=O [listing 1 of 2 here]
Oral bioavailability (%) [2]: 71.2%

CNC(=O)[C@H](C)Cn1cnc2ccc(-c3cnc(OC)c(NS(=O)(=O)c4ccc(F)cc4F)c3)cc2c1=O [listing 2 of 2 here]
Classification for hygroscopicity [3]: hygroscopic | ΔW, hygroscopical weight gain [3]: 2.332%

CNC(=O)[C@H](C)Cn1cnc2ccc(-c3cnc(OC)c(NS(=O)(=O)c4ccc(F)cc4F)c3)cc2c1=O [Compound represented by formula (I)]
IC50 [4]: 19.8 nM | IC50 [5]: 1.75 nM | IC50 [6]: 25.3 nM | IC50 [7]: 192 nM | IC50 [1]: 35.3 nM

Cc1nc(NC(=O)N2CCC[C@H]2C(N)=O)sc1-c1ccnc(C(C)(C)C(F)(F)F)c1 [BYL-719, reference compound]
Anti-tumor effect (in words) ([8]; 40 mg/kg group): significant anti-tumor effects | T/C % [8, 9]: 29.39% | TGI % [8, 9]: 95.31%

CCN(CC)CCn1cnc2ccc(-c3cnc(OC)c(NS(=O)(=O)c4ccc(F)cc4F)c3)cc2c1=O [R012 (A10)]
IC50 [1]: > 1000 nM
